Holding throughout (type): biochemical
For one test, the target named is T1, CLK2 (h) (Homo sapiens, UniProt P49760).
T1 construct: purchased Merck Millipore (KinaseProfiler service)
Nature of the test: CLK2 KinaseProfiler radiometric protein kinase assay. The conditions noted are these: radiometric, 15 μM ATP, 40 minutes at room temperature; read-out: CLK2 IC50. The procedure: (§1) In vitro essays were performed by the company Merck Millipore in their KinaseProfiler radiometric protein kinase assay as paid commercial service. The compounds IC50 values for inhibition of individual protein kinases were determined. Dose-response curves were plotted from inhibition data generated, each in duplicate, from 10 point serial dilutions of inhibitory compounds. Concentration of compound was plotted against % kinase activity. To generate IC50 values, the dose-response curves were fitted to a standard sigmoidal curve and IC50 values were derived by standard nonlinear regression analysis.
(§2) All tested compounds were prepared in 100% DMSO to final assay concentrations either 0.5 mM (for the concentration row A, see below) or 0.05 mM (for the concentration row B). This working stock of the compound was added to the assay well as the first component in the reaction, followed by the remaining components as detailed below. The stock solution was added to the individual assay wells in such amounts that the concentrations of the compound were either in the row A (0.001 μM, 0.003 μM, 0.01 μM, 0.03 μM, 0.1 μM, 0.3 μM, 1.0 μM, 3.0 μM, and 10.0 μM) or in the row B (0.0001 μM, 0.0003 μM, 0.001 μM, 0.003 μM, 0.01 μM, 0.03 μM, 0.1 μM, 0.3 μM, and 1.0 μM). There was no pre-incubation step between the compound and the kinase prior to initiation of the reaction.
(§3) The positive control wells contained all components of the reaction, except the compound of interest; however, DMSO (at a final concentration of 2%) was included in these wells to control for solvent effects. The blank wells contained all components of the reaction, with staurosporine as a reference inhibitor replacing the compound of interest. This abolished kinase activity and established the base-line (0% kinase activity remaining).
CLK2 (h) was diluted in the buffer (20 mM MOPS (3-(N-morpholino)propanesulfonic acid), 1 mM EDTA (ethylendiaminotetraacetic acid), 0.01% Brij-35 (detergent), 5% Glycerol, 0.1% β-mercaptoethanol, 1 mg/mL BSAs) to the concentration of 1.01 mg/mL prior to addition to the reaction mix.
(§4) The above stock solution of CLK2(h) was added to a mixture containing 8 mM MOPS pH 7.0, 0.2 mM EDTA, and 20 μM […](p) EDEEE in such amount that the resulting concentration of CLK2(h) was 2.1 nM. This mixture was added to the stock solution of the tested compound. The reaction was initiated by the addition of the MgATP mix in such amount that the resulting concentration of Mg acetate in the reaction mixture was 10 mM and [γ-^33P-ATP] (specific activity approx. 500 cpm/pmol) was 15 μM. After incubation for 40 minutes at room temperature, the reaction was stopped by the addition of 3% phosphoric acid solution. 10 μL of the reaction was then spotted onto a P30 filtermat and washed three times for 5 minutes in 75 mM phosphoric acid and once in methanol prior to drying and scintillation counting.

Another test has as its target T2, HIPK2(h) (Homo sapiens, UniProt Q9H2X6).
T2 construct: purchased Merck Millipore (KinaseProfiler service)
In words: HIPK2 KinaseProfiler radiometric protein kinase assay. The conditions noted are these: 10 μM ATP, 40 minutes at room temperature. The procedure:
as §1, §2, §3
HIPK2(h) was diluted in the buffer (20 mM MOPS, 1 mM EDTA, 0.01% Brij-35, 5% Glycerol, 0.1% β-mercaptoethanol, 1 mg/mL BSAs) to the concentration of 1.01 mg/mL prior to addition to the reaction mix.
(§5) The above stock solution of HIPK2(h) was added to a mixture containing 8 mM MOPS pH 7.0, 0.2 mM EDTA, and 0.33 mg/mL myelin basic protein in such amount that the resulting concentration of HIPK2(h) was 1.4 nM. This mixture was added to the stock solution of the tested compound. The reaction was initiated by the addition of the MgATP mix in such amount that the resulting concentration of Mg acetate in the reaction mixture was 10 mM and [γ-^33P-ATP] (specific activity approx. 500 cpm/pmol) was 10 μM. After incubation for 40 minutes at room temperature, the reaction was stopped by the addition of 3% phosphoric acid solution. 10 μL of the reaction was then spotted onto a P30 filtermat and washed three times for 5 minutes in 75 mM phosphoric acid and once in methanol prior to drying and scintillation counting.

The next test deals with T3, CLK4 (h) (Homo sapiens, UniProt Q9HAZ1).
T3 construct: purchased Merck Millipore (KinaseProfiler service)
T3 sequence (Q9HAZ1 whole entry): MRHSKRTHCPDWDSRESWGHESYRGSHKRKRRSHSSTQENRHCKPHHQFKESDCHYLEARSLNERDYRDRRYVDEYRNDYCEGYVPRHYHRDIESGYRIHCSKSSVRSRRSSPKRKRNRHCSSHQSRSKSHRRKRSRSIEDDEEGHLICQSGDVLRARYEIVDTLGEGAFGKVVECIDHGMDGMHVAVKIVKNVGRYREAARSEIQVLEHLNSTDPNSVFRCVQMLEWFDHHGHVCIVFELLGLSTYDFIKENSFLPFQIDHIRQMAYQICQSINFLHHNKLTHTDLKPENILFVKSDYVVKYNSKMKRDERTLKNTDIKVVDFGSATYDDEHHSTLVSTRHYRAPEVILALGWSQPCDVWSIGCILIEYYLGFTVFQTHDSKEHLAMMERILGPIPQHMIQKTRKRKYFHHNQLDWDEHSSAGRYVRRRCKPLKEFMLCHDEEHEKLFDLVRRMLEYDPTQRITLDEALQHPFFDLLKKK
Nature of the test: CLK4 KinaseProfiler radiometric protein kinase assay. The conditions noted are these: 15 μM ATP, 40 minutes at room temperature. The procedure:
as §1, §2, §3
CLK4 (h) was diluted in the buffer (20 mM MOPS, 1 mM EDTA, 0.01% Brij-35, 5% Glycerol, 0.1% β-mercaptoethanol, 1 mg/mL BSAs) to the concentration of 1.01 mg/mL prior to addition to the reaction mix.
as §4, with “CLK4(h)” for “CLK2(h)”, “200” for “20”, “140.8” for “2.1”

The next test has as its target T4, HIPK1(h) (Homo sapiens, UniProt Q86Z02).
T4 construct: purchased Merck Millipore (KinaseProfiler service)
Nature of the test: HIPK1 KinaseProfiler radiometric protein kinase assay. The conditions noted are these: 45 μM ATP, 40 minutes at room temperature. Here is the method: as §1, §2, §3
HIPK1(h) was diluted in the buffer (20 mM MOPS, 1 mM EDTA, 0.01% Brij-35, 5% Glycerol, 0.1% β-mercaptoethanol, 1 mg/mL BSAs) to the concentration of 1.01 mg/mL prior to addition to the reaction mix.
as §5, with “solution of HIPK1(h) was added” for “solution of HIPK2(h) was added”, “concentration of HIPK1(h) was 4.7” for “concentration of HIPK2(h) was 1.4”, “HIPK1(h) was 4.7 nM. This” for “HIPK2(h) was 1.4 nM. This”, “cpm/pmol) was 45 μM. After” for “cpm/pmol) was 10 μM. After”

A further test concerns the target T5, HIPK3(h) (Homo sapiens, UniProt Q9H422).
T5 construct: purchased Merck Millipore (KinaseProfiler service)
Nature of the test: HIPK3 KinaseProfiler radiometric protein kinase assay. The conditions noted are these: 15 μM ATP, 40 minutes at room temperature. The procedure: as §1, §2, §3
HIPK3(h) was diluted in the buffer (20 mM MOPS, 1 mM EDTA, 0.01% Brij-35, 5% Glycerol, 0.1% β-mercaptoethanol, 1 mg/mL BSAs) to the concentration of 1.01 mg/mL prior to addition to the reaction mix.
(§6) The above stock solution of HIPK3(h) was added to a mixture containing 8 mM MOPS pH 7.0, 0.2 mM EDTA, and 1.0 mg/mL myelin basic protein in such amount that the resulting concentration of HIPK3(h) was 6.4 nM. This mixture was added to the stock solution of the tested compound. The reaction was initiated by the addition of the MgATP mix in such amount that the resulting concentration of Mg acetate in the reaction mixture was 10 mM and [γ-^33P-ATP] (specific activity approx. 500 cpm/pmol) was 15 μM. After incubation for 40 minutes at room temperature, the reaction was stopped by the addition of 3% phosphoric acid solution. […]

The next test concerns the target T6, FLT3(h) (Homo sapiens, UniProt P36888).
T6 construct: purchased Merck Millipore (KinaseProfiler service)
T6 sequence (P36888 27-993): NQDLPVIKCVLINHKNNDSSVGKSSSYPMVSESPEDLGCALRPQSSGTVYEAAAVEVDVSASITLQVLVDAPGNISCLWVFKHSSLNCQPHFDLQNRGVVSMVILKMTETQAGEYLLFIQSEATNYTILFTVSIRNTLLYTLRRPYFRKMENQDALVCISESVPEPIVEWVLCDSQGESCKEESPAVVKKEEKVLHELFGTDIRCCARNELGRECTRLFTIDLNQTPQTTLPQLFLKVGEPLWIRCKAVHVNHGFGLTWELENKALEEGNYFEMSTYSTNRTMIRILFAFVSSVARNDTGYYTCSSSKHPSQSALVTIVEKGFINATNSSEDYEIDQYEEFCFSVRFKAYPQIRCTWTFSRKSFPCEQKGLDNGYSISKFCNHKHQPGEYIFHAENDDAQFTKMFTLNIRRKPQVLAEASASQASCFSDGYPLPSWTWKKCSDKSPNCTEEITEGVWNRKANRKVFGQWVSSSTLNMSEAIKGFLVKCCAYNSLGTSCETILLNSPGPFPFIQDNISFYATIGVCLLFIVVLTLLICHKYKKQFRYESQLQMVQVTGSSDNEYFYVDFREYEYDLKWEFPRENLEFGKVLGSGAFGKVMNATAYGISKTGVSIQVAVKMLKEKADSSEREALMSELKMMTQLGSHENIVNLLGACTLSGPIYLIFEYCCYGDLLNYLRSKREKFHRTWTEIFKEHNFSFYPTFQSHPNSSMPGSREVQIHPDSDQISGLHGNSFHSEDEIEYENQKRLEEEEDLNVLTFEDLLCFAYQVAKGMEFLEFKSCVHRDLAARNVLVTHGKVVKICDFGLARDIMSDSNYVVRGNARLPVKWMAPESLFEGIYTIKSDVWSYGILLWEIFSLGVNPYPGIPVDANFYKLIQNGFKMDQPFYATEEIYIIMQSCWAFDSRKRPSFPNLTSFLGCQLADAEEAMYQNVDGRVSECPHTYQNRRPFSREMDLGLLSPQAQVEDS
In words: FLT3 KinaseProfiler radiometric protein kinase assay. The conditions noted are these: 200 μM ATP, 40 minutes at room temperature. Here is the method:
as §1, §2, §3
FLT3(h) was diluted in the buffer (20 mM MOPS, 1 mM EDTA, 0.01% Brij-35, 5% Glycerol, 0.1% β-mercaptoethanol, 1 mg/mL BSAs) to the concentration of 1.01 mg/mL prior to addition to the reaction mix.
The above stock solution of Flt3(h) was added to a mixture containing 8 mM MOPS pH 7.0, 0.2 mM EDTA, and 50 μM EAIYAAPFAKKK, in such amount that the resulting concentration of FLT3(h) was 28.3 nM. This mixture was added to the stock solution of the tested compound. The reaction was initiated by the addition of the MgATP mix in such amount that the resulting concentration of Mg acetate in the reaction mixture was 10 mM and [γ-^33P-ATP] (specific activity approx. 500 cpm/pmol) was 200 μM. After incubation for 40 minutes at room temperature, the reaction was stopped by the addition of 3% phosphoric acid solution. 10 μL of the reaction was then spotted onto a P30 filtermat and washed three times for 5 minutes in 75 mM phosphoric acid and once in methanol prior to drying and scintillation counting.

Another test has as its target T7, TRKA(h) (Homo sapiens, UniProt P04629).
T7 construct: purchased Merck Millipore (KinaseProfiler service)
In words: TRKA KinaseProfiler radiometric protein kinase assay. The conditions noted are these: 120 μM ATP, 40 minutes at room temperature. The procedure:
as §1, §2, §3
TRKA(h) was diluted in the buffer (20 mM MOPS, 1 mM EDTA, 0.01% Brij-35, 5% Glycerol, 0.1% β-mercaptoethanol, 1 mg/mL BSAs) to the concentration of 1.01 mg/mL prior to addition to the reaction mix.
as §6, with “TRKA(h)” for “HIPK3(h)”, “250 μM KKKSPGEYVNIEFG,” for “1.0 mg/mL myelin basic protein”, “28.2” for “6.4”, “120” for “15”

The results in this text go back to patent US9902733B2, “Furopyridines as inhibitors of protein kinases” (MASARYKOVA UNIVERZITA, priority 2014, dated 2018).

T7 sequence (P04629 33-796): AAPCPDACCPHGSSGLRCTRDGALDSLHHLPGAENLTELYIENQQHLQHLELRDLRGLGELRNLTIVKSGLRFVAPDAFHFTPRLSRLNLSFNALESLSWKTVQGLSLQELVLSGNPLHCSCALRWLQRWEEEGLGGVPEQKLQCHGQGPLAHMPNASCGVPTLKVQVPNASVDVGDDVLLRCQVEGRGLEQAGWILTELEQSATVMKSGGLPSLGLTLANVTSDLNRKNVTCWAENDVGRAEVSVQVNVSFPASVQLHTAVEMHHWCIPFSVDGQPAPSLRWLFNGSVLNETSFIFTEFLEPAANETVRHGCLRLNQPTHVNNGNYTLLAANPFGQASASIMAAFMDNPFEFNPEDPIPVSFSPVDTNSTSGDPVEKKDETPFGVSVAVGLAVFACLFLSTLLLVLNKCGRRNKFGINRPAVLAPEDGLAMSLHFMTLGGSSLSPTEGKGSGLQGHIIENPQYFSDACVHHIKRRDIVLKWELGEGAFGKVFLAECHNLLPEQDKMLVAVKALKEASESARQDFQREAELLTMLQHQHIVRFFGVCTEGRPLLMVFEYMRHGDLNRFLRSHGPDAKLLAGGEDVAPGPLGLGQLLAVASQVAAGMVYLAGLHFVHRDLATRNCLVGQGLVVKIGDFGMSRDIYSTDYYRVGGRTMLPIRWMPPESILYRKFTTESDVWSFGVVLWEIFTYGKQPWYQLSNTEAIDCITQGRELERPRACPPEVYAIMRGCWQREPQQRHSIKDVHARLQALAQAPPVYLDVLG
T1 sequence (P49760 whole entry): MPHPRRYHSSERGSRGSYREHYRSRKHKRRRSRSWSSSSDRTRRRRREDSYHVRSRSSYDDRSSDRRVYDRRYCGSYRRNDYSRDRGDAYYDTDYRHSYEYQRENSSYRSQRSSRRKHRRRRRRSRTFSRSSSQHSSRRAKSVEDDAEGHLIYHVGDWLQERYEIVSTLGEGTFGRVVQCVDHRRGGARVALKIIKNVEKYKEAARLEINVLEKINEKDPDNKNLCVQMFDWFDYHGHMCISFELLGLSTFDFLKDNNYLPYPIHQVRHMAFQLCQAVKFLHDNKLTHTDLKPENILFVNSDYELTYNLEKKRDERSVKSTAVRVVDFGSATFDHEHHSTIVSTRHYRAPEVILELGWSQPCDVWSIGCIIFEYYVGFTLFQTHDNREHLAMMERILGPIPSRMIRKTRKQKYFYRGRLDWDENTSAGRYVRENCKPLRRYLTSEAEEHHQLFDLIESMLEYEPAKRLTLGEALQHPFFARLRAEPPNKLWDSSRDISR
T4 sequence (Q86Z02 whole entry): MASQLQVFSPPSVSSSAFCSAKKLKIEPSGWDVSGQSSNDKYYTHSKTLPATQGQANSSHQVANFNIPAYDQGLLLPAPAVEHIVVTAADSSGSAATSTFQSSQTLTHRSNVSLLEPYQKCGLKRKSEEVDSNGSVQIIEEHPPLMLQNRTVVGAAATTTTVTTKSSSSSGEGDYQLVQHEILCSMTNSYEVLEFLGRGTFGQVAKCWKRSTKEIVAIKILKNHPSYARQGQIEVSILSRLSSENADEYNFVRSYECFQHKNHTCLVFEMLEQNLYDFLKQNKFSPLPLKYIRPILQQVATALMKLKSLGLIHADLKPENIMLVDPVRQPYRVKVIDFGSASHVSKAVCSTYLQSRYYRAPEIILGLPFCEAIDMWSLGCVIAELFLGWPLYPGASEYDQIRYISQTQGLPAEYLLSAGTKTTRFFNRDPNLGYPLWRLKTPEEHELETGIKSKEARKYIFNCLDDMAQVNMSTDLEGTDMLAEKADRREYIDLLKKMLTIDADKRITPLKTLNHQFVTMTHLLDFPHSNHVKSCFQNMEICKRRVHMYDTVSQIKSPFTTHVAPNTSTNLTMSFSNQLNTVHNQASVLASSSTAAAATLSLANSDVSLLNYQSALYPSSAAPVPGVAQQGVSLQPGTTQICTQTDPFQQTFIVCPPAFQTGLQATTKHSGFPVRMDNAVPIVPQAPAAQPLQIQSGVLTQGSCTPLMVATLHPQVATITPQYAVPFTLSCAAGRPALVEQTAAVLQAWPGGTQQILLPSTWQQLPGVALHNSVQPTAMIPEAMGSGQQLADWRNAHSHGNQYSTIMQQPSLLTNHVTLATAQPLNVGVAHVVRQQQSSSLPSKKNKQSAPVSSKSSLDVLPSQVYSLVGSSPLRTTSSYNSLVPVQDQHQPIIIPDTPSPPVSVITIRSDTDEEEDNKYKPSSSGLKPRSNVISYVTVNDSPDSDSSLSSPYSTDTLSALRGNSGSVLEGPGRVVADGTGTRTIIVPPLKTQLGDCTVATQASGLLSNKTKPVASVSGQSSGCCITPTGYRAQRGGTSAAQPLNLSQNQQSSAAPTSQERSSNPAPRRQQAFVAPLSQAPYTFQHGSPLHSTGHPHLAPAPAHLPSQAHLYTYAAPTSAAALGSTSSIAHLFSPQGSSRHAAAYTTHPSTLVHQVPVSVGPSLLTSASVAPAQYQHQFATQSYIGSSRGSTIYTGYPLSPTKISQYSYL
T2 sequence (Q9H2X6 whole entry): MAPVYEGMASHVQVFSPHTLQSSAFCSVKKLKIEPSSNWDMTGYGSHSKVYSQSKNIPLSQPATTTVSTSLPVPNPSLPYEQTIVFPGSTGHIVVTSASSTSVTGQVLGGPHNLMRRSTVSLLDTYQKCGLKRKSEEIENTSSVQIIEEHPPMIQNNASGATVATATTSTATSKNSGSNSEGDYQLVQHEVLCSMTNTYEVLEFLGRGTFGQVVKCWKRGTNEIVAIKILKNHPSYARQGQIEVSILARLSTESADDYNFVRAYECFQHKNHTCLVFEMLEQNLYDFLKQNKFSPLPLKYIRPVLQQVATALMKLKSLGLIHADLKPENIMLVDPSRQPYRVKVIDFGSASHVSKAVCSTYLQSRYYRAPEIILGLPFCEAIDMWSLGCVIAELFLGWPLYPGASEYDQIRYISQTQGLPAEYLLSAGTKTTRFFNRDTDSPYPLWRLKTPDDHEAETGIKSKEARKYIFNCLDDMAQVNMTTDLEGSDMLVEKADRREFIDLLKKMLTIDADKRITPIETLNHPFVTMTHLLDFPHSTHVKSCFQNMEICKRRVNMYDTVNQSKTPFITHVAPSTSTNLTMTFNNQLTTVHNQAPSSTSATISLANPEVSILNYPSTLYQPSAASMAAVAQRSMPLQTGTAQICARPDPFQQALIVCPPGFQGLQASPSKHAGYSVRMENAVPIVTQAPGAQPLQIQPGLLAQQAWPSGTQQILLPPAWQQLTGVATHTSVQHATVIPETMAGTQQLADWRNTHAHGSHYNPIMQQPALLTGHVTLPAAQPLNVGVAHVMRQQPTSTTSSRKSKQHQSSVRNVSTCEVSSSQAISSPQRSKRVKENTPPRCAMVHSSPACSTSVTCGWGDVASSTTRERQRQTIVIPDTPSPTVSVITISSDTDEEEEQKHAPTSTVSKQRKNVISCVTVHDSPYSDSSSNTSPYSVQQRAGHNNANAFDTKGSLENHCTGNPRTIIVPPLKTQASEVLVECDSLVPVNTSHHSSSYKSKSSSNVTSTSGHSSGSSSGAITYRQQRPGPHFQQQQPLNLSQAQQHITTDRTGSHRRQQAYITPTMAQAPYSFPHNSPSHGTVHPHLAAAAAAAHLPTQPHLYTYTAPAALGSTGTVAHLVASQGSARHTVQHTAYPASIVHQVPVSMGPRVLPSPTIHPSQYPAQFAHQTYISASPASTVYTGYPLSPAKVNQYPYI

The IC50 is the concentration that gives 50% inhibition. As to `Cn1cc(-c2ccc3occ(-c4ccc5ccccc5c4)c3n2)cn1` [Preparative Example 7A], the IC50 is < 0.1 µM at CLK2 (h); < 1 µM on HIPK2(h); < 0.1 µM against CLK4 (h); < 1 µM at HIPK1(h); < 1 µM at HIPK3(h).
As to `Cc1n[nH]c(C)c1-c1ccc2occ(-c3ccc4ccccc4c3)c2n1` [Preparative Example 7D], the IC50 at CLK2 (h) is < 5 µM; on HIPK2(h) it was < 1 µM; at CLK4 (h) it was < 5 µM; on HIPK1(h), < 5 µM; against HIPK3(h), < 5 µM.
Turning to `c1ccc(-c2coc3ccc(Nc4ccc(N5CCOCC5)cc4)nc23)cc1` [Preparative Example 8B], the values for the IC50 on CLK2 (h), at FLT3(h) and against TRKA(h) were < 1 µM, < 1 µM and < 5 µM, respectively.
`CN1CCN(c2ccc(Nc3ccc4occ(-c5ccccc5)c4n3)cc2)CC1` [Preparative Example 8C]: the half-inhibitory concentration (IC50) on CLK4 (h), against FLT3(h) and at TRKA(h) was < 5 µM throughout.
For `c1ccc(-c2coc3ccc(Nc4ccncc4)nc23)cc1` [Preparative Example 8D], the IC50 at FLT3(h) is < 5 µM.
As for `c1ccc(Nc2ccc3occ(-c4ccccc4)c3n2)cc1` [Preparative Example 8E], the IC50 against CLK4 (h), against FLT3(h) and on TRKA(h) was < 5 µM each time.
In the case of `Cc1cc(Nc2cc(-c3ccccc3)nc3ccoc23)sn1` [Preparative Example 17E], the IC50 at FLT3(h) and against TRKA(h) was < 5 µM throughout.
